Test results taken from patent publication US9290478B2, “Substituted quinoxalines as FGFR kinase inhibitors” (ASTEX THERAPEUTICS LTD, priority 2010, dated 2016).
Where “and” joins values, the source holds several entries; their conditions need not be identical. Identical values can stand only once. Counter-ions that a name gives are not always drawn.

melting point	Compound
154 °C	COc1cc(OC)cc(C(CC(C)=O)c2ccc3ncc(-c4cnn(C)c4)nc3c2)c1 (stereo not drawn) [Compound 16]
172 °C	COc1cc(OC)cc(C(CCNC(C)C)c2ccc3ncc(-c4cnn(C)c4)nc3c2)c1 (single isomer, unassigned) (as salt: oxalic acid salt) [Compound 32a]
163 °C and 162 °C	COc1cc(OC)cc(C(CCNC(C)C)c2ccc3ncc(-c4cnn(C)c4)nc3c2)c1 (single isomer, unassigned) (as salt: oxalic acid salt) [Compound 19a]
